The values that follow come from article PMC6423038, “Deferiprone: Pan-selective Histone Lysine Demethylase Inhibition Activity and Structure Activity Relationship Study” (Scientific Reports, 2019).

Test [1] deals with HP1-mediated heterochromatin gene repression in CiA:Oct4 embryonic stem cells. The experiment in a line: HP1-recruitment assay dose curve (CiA:Oct4, with CIP-rapamycin), flow cytometry. The class given is cell-based, mouse. The conditions noted are these: 48 h with CIP-rapamycin recruitment of HP1; for concentration reaching maximum inhibition of heterochromatin formation / gene repression: doses 250 nM–10 µM. The source says: To elucidate the effect of DFP-based KDM inhibitors on chromatin dynamics, we profiled them in an intracellular assay which measures heterochromatin formation speed. The chromatin in vivo assay (CiA) leverages chemical induced proximity (CIP) to recruit heterochromatin protein 1 (HP1) to a modified Oct4 locus. This reporter system is composed of tandem arrays of Gal4 and zinc finger DNA binding domains in the promoter of one allele of Oct4, where the gene was replaced by a nuclear eGFP reporter. Protein fusions of Gal4-FKBP and FRB-HP1 allow for direct chemical recruitment of HP1 to the CiA:Oct4 reporter locus upon addition of the chemical inducer of proximity (CIP)-rapamycin. After CIP-rapamycin addition, HP1 is recruited to the reporter locus and brings histone methyltransferase enzymes to the chromatin reporter resulting in the repressive H3K9me3 mark being deposited (Fig. 10A). H3K9me3 deposition is the signature mark of heterochromatin and is coupled with gene silencing and loss of GFP expression (Fig. 10B)[33]. Others have shown that H3K4me3 marked nucleosomes impede H3K9 methyltransferase activity. Thus, we postulate that the active H3K4me3 mark must be removed by KDM enzymes as part of the transformation from euchromatin to heterochromatin. Inhibition of KDMs, specifically those targeting H3K4me3, would result in a decrease in H3K9me3 accumulation, which would be measured in our assay as an increase in GFP positive cells.
To determine the effect of DFP-based KDM inhibitors on HP1-mediated gene repression, we treated CiA:Oct4 embryonic stem (ES) cells with doses of representative compounds ranging from 10 µM–250 nM for 48 h with CIP-rapamycin recruitment of HP1 (Fig. 10C). […] The percentage of GFP(+) cells was determined by flow cytometry as indicated in representative histograms (Supplemental Fig. S8).
(§1) Day 0, CiA:Oct4 N118/163 cells were grown in ES media and seeded at a density of 10,000 cells per well in 100 μL media (100,000 cells mL^−1) on gelatin coated 96 well plates. Day 1, culture media was aspirated and replaced with 100 µL ES media containing +/− 6 nM rapamycin. 10 µM, 5 µM, 2.5 µM, 1 µM, 500 nM, and 250 nM concentrations of compound or DMSO were added using a TTP Labtech Mosquito HTS liquid handler. Days 2, fresh ES media +/− rapamycin and compound were added as in Day 1. Day 3, cells were washed with PBS and trypsinized using 0.25% trypsin-EDTA. Trypsin was quenched with serum. Cells were resuspended by pipetting in preparation for flow cytometry analysis.
(§2) Flow cytometry data was acquired using the Intellicyt iQue Screener and analyzed with FlowJo software.
The CiA:Oct4 recruitment system in mouse embryonic stem cells contains Gal4 and Zinc finger DNA binding arrays and a downstream nuclear eGFP gene in place of a single Oct4 allele as previously described.^30 The CiA:Oct4 N118/N163 cell line containing viral integrations of N118 and N163 plasmids (N118- nLV EF-1α-Gal-FKBPx1-HA-PGK-Blast, N163- nLV EF-1α-HP1α (CS)-Frbx2(Frb+FrbWobb)-V5-PGK-Puro) was used for inhibition of HP1-mediated heterochromatin studies. All plasmids are freely available on addgene.
(§3) HP1-Recruitment Assay Dose Curve. Day 0, CiA:Oct4 N118/163 cells were grown in ES media and seeded at a density of 10,000 cells per well in 100 µL media (100,000 cells mL^-1) on gelatin coated 96 well plates. Day 1, culture media was aspirated and replaced with 100 µL ES media containing +/- 6 nM rapamycin. 10 µM, 5 µM, 2.5 µM, 1 µM, 500 nM, and 250 nM concentrations of compound or DMSO were added using a TTP Labtech Mosquito HTS liquid handler. Days 2, fresh ES media +/- rapamycin and compound were added as in Day 1. Day 3, cells were washed with PBS and trypsinized using 0.25% trypsin-EDTA. Trypsin was quenched with serum. Cells were resuspended by pipetting in preparation for flow cytometry analysis.
Flow Cytometry and Analysis.
Background: Flow cytometry measures light scatter and fluorescence of single cells or particles in a stream.

Test [2] deals with T1, KDM6A (UTX) (Homo sapiens, UniProt O15550).
T1 construct: purchased BPS Bioscience
T1 sequence (O15550 whole entry): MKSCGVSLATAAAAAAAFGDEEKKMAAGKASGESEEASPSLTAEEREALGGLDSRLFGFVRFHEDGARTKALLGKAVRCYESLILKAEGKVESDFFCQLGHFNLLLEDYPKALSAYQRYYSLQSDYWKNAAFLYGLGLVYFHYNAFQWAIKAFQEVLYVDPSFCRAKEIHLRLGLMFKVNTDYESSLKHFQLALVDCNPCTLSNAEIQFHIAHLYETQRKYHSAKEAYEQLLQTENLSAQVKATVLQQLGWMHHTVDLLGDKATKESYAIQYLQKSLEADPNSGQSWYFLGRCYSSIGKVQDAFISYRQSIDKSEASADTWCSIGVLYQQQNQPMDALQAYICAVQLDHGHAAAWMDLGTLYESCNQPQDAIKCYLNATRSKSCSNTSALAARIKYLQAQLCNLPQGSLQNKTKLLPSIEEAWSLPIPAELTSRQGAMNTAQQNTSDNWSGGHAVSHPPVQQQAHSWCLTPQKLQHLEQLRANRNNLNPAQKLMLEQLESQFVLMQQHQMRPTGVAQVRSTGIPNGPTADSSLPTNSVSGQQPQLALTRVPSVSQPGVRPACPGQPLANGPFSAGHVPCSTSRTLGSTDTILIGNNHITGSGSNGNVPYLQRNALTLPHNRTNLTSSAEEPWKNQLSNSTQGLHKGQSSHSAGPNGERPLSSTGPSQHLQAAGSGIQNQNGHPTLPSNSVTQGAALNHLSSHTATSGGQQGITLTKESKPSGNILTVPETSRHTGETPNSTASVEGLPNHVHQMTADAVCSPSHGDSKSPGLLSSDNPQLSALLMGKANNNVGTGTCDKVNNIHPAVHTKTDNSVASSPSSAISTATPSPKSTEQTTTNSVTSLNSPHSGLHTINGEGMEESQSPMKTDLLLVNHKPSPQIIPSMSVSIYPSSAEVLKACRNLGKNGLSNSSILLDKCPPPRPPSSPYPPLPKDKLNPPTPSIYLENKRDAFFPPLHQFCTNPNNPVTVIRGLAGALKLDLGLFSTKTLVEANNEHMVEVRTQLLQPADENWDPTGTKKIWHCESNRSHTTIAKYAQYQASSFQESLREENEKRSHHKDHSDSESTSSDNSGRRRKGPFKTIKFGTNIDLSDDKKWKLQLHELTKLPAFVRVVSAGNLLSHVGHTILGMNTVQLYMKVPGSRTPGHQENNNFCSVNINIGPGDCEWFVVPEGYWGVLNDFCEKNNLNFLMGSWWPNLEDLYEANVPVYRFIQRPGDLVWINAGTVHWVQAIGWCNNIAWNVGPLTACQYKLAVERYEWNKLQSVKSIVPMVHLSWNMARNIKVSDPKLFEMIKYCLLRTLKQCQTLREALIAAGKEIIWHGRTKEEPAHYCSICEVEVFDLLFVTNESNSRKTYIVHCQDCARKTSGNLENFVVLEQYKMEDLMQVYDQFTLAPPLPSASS
Nature of the test: KDM cell-free assay (AlphaScreen, BPS Bioscience). The class given is biochemical. The note with it: for IC50: Fig. 9A, read-out: IC50 (KDM6A inhibition dose response curve). In general terms: In Alpha technology, singlet oxygen from a donor bead excites a nearby acceptor bead.

Test [3] has as its system VERO. Nature of the test: Cell viability assay (MTS), antiproliferative activity. The class given is cell-based. The note with it: Chlorocebus sabaeus, 72 h. How it is done: (§4) To preliminarily profile the bioactivity of these compounds, we adopted a streamlined approach which involved screening against KDM6A at two concentrations and evaluating antiproliferative activity against three representative cell lines – MCF-7 (ER(+) BCa), MDA-MB-231 (TNBC BCa) and Vero (a non-transformed cell line as control).
(§5) The In vitro proliferation assay was performed as reported previously[15],[16]. Detailed description of the protocol used is included in the Supplementary Information.
(§6) Cell Viability Assay. All cell lines were purchased form ATCC (Manassas, VA), and they were routinely cultured in different media recommended by the supplier. MCF-7 cells were cultured in non-phenol red DMEM (Corning, Manassas, VA) fortified with 10% charcoal treated fetal bovine serum (FBS; Atlanta Biologicals, GA) and 0.2 mM glutamine (Corning, Manassas, VA), whereas MDA-MB-231, DU-145, and Vero were cultured in DMEM with 10% FBS. […] After 24 h incubation in 37 °C under 5% CO2, cells were treated with serially diluted ligands with final DMSO concentration of 1% and incubated for additional 72 h. MTS (CellTiter 96 Aqueous One Solution Cell Proliferation Assays, Promega, Madison, WI) was added to each well 2.5 h prior to recording the absorbance at 490 nm.

Test [4] concerns MCF-7. The description is as above. The class given is cell-based. The note with it: Homo sapiens, MCF7, 72 h. The protocol:
as §4, §5, §6

The subject of test [5] is MDA-MB-231. Described as above. The class given is cell-based. The conditions noted are these: Homo sapiens, 72 h. The protocol: as §4, §5, §6
Test [6] deals with Oct4 GFP expression in CiA:Oct4 embryonic stem cells. The experiment in a line: CiA:Oct4 reporter dose response without HP1 recruitment (no CIP-rapamycin), flow cytometry. The class given is cell-based, mouse. The note with it: 48 h without HP1 recruitment; for decrease in the percentage of GFP(+) cells: at 2.5 µM.
Excerpt: Embryonic stem cells are sensitive to environmental stimuli which may trigger cell differentiation. During mammalian stem cell differentiation or exposure to toxic compounds, Oct4 is known to be repressed as cells lose reinforcement of the pluripotency transcriptional activation network[35],[36]. Therefore, the CiA:Oct4 reporter without CIP-recruitment of HP1 functions is a valid system to determine how much cell differentiation or toxicity is occurring by measuring the GFP expression levels. To elucidate the effect of DFP-based KDM inhibitors on Oct4 GFP expression in the absence of HP1 recruitment, we performed dose response studies without addition of CIP-rapamycin (Fig. 11A).
as §1, §2, §3
Flow Cytometry and Analysis. Flow cytometry data was acquired using the Intellicyt iQue Screener and analyzed with FlowJo software. Cell populations were gated based on forward and side scatter height. Single cell populations were gated using forward scatter area by forward scatter height. Autofluorescent cells were excluded and the remaining cells were gated into GFP (-) and GFP (+) populations based on DMSO control samples.

For test [7], the system named is MDA-MB-231 tumors. The experiment in a line: Mouse xenograft assay, MDA-MB-231 (ER(−)). The test is classed as in vivo. The conditions noted are these: MDA-MB-231 xenograft.
Test [8] has as its system T47D cells. The experiment in a line: Viability of T47D cells at three concentrations. The test is classed as cell-based, human. The note with it: Fig. S9. How it is done:
To determine the antitumor potential of the DFP-based KDM inhibitors, we investigated the efficacy of a representative example, 2j, in two murine xenograft models of BCa. The xenografts were established using two human BCa cell lines – T47D (ER(+)) and MDA-MB-231 (ER(−)). […] Because our in vitro study was conducted using MCF-7 as a model of ER(+) cell, we first tested the effect of 2j on the viability of T47D cells at three concentrations. […] The effect of 2j on T47D viability mirrored that of its effect on MCF-7, confirming preferential cytotoxicity of the DFP-based agents […]. Once we established that T47D cells are sensitive to 2j, xenografts of T47D and MDA-MB-231 were established in female athymic nude mice (8-week old) by injection of cells (1 × 10^7) into the mammary fat pad as described previously[37],[38]. After the tumor volume reached ~250 mm^3, mice were treated with 2j (25 mg/kg body weight) for 8 weeks. […] Relative to control, 2j caused approx. 81% (4426 vs 884 mm^3) and 70% (5116 vs 1536 mm^3) reduction in the growth of T47D and MDA-MBMB-231 tumors, respectively.

[9] abbreviates: Table 5, values calculated by linear regression.

The structures appear in SMILES notation.

Consider `Cc1c(O)c(=O)ccn1C1CCC(CC2CCC(n3ccc(=O)c(O)c3C)CC2)CC1` (stereo not drawn) [3g], for which the “concentration reaching maximum inhibition of heterochromatin formation / gene repression” value in test [1] is given as 2.5 µM. In test [2] (Table 3), this compound displayed an inhibition at 1 µM of 9%. For the same compound, the inhibition at 10 µM in test [2] (Table 3) was found to be 100%. Also, the IC50 in test [2] was 1.7 µM; in test [3] (Table 6), more than 50 µM; in test [4] (Table 6, values calculated by linear regression) it was 31.1 µM; in test [5] (Table 6) it was 3.5 µM. Moreover, the “decrease in the percentage of GFP(+) cells” value (from here on “decrease in the percentage”) in test [6] is recorded as ~ 30%.

In the case of `COc1cccc(-c2cn(CCCCCn3ccc(=O)c(O)c3C)nn2)c1` [2j], the “reduction in the growth of tumors relative to control” value in test [7] (athymic nude mice, 25 mg/kg body weight for 8 weeks) is on record as approximately 70%. In test [7] (25 mg/kg for 8 weeks, control 5116 mm^3), this compound displayed a tumor volume of 1536 mm^3. The “increase in the number of GFP positive cells” value in test [1] amounted to 20%. This compound also registered an inhibition at 1 µM in test [2] (Table 2) of 8%. Moreover, the inhibition at 10 µM in test [2] (Table 2) turned out to be 100%. Further, the IC50 in test [2] is 3.2 µM; in test [3] (Table 5), more than 50 µM; in test [4] (setting [9]), 34.1 µM; in test [5] (Table 5) it was 10.6 µM. Further, in test [8], the “growth of T47D cells” value is “dose-dependent reduction”.

In the case of `Cc1c(O)c(=O)ccn1CCCCCCn1cc(-c2ccc(-c3ccccc3)cc2)nn1` [2v], the “concentration reaching maximum inhibition of heterochromatin formation / gene repression” value in test [1] is 1 µM. In test [2] (Table 2), this compound came in with an inhibition at 1 µM of 12%. In test [2] (Table 2), the inhibition at 10 µM turned out to be 49%. Moreover, the IC50 in test [3] (Table 5) is 4.9 µM; in test [4] (Table 5), more than 50 µM; in test [5] (Table 5) it was 2.5 µM. Further, in test [6], the “decrease in the percentage” value is given as ~ 30%.

`Cc1c(O)c(=O)ccn1CCCCCn1cc(-c2ccc(-c3ccncc3)cc2)nn1` [2t]: the “concentration reaching maximum inhibition of heterochromatin formation / gene repression” value in test [1] was determined as 10 µM. This compound also showed an inhibition at 1 µM in test [2] (Table 2) of 8%. In addition, the inhibition at 10 µM in test [2] (Table 2) turned out to be 99%. Besides, the IC50 in test [3] (Table 5) was 29.2 µM; in test [4] (setting [9]), 37.6 µM; in test [5] (Table 5), 3.6 µM. The “decrease in percentage GFP(+) cells” value in test [6] (only at the 10 µM dose) is ~ 20%.

As to `Cc1c(O)c(=O)ccn1CCn1cc(-c2ccccc2)nn1` [1a], the “inhibition of heterochromatin formation” value in test [1] (up to 10 µM) is recorded as “did not inhibit heterochromatin formation”. Also, in test [2] (Table 2), the inhibition at 1 µM was 12%. In test [2] (Table 2), this compound came in with an inhibition at 10 µM of 96%. Moreover, the figures for the IC50 in test [3] (Table 4), in test [4] (Table 4) and in test [5] (Table 4) were more than 100 µM, more than 50 µM and more than 50 µM, respectively.

`COc1ccc2cc(-c3cn(CCCCCCn4ccc(=O)c(O)c4C)nn3)ccc2c1` [2w]: the “concentration reaching maximum inhibition of heterochromatin formation / gene repression” value in test [1] is given as 1 µM. For the same compound, 1 µM produced 16% inhibition in test [2] (Table 2). The same compound gave an inhibition at 10 µM in test [2] (Table 2) of 57%. The IC50 is 3.9 µM in test [3] (Table 5), more than 50 µM in test [4] (Table 5) and 1.2 µM in test [5] (Table 5). Moreover, the “decrease in the percentage” value in test [6] is on record as ~ 30%.

What is called inhibition is how much of the control response was suppressed. Broadly, the IC50 is the concentration needed to halve the response being measured.
